Source: ChEMBL document CHEMBL1148643, “Fancy bioisosteres: novel paracyclophane derivatives as super-affinity dopamine D3 receptor antagonists” (J Med Chem, 2006)
“And” between values parts separate entries of the source, which are not always exact repeats. Identical values can stand only once.

Legend:
D(4) dopamine receptor = molecular target: T1, D(4) dopamine receptor (Homo sapiens, UniProt P21917); assay: Displacement of [3H]spiperone from human D4 receptor expressed in CHO cells; format: cell-based
T1 sequence (P21917 whole entry): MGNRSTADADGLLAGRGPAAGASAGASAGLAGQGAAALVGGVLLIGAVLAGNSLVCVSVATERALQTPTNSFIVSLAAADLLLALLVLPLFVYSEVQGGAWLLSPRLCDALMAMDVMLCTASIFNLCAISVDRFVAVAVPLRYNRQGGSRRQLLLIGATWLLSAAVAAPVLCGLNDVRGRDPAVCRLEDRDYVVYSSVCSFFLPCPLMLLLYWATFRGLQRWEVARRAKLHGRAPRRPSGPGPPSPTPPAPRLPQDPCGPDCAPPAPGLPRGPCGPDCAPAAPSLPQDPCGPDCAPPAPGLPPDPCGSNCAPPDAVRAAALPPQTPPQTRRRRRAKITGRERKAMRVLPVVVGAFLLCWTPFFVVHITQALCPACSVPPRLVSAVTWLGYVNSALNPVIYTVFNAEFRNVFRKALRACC

D(2) dopamine receptor [1] = molecular target: T2, D(2) dopamine receptor (Homo sapiens, UniProt P14416); assay: biochemical
T2 sequence (P14416 whole entry): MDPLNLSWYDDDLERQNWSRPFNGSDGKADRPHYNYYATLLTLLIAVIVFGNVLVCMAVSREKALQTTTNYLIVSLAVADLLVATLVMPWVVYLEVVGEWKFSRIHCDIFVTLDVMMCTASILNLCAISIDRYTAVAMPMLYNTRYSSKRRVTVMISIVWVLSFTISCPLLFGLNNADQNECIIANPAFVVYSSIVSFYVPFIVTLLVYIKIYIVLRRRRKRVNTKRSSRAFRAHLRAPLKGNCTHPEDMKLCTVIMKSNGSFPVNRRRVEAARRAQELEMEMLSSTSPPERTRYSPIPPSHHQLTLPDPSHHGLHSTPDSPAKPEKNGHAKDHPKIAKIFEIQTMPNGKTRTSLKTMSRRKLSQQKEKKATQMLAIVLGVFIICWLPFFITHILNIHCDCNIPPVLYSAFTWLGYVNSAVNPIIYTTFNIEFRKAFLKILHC
Description: Displacement of [3H]spiperone from human D2 short receptor expressed in CHO cells

D(2) dopamine receptor [2] = molecular target: T2, D(2) dopamine receptor; assay: biochemical; remark: listed apart in the source
Description: Displacement of [3H]spiperone from human D2 long receptor expressed in CHO cells

D(3) dopamine receptor = D(3) dopamine receptor (Homo sapiens, UniProt P35462); assay: biochemical
Sequence of D(3) dopamine receptor (P35462 whole entry): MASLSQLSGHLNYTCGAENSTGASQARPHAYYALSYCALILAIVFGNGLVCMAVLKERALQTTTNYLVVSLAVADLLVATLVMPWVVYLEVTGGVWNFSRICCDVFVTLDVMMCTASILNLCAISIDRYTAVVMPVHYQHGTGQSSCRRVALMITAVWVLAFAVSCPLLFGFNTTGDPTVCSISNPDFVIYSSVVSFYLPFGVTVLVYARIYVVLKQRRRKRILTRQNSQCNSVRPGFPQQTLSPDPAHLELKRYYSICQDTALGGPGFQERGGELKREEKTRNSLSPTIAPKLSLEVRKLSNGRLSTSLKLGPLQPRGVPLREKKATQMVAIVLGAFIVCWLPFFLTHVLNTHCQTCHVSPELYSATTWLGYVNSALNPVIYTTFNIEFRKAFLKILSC
Description: Displacement of [3H]spiperone from human D3 receptor expressed in CHO cells

Row | SMILES | Ki (D(4) dopamine receptor) | Ki (D(2) dopamine receptor [1]) | Ki (D(2) dopamine receptor [2]) | Ki (D(3) dopamine receptor)
1 | COc1c(Cl)cccc1N1CCN(CCCCNC(=O)c2cc3ccc2CCc2ccc(cc2)CC3)CC1 | 33 nM | 28 nM | 42 nM | 0.46 nM
2 | O=C(NCCCCN1CCN(c2cccc(Cl)c2Cl)CC1)c1cc2ccc1CCc1ccc(cc1)CC2 | 120 nM | 140 nM | 220 nM | 3.6 nM
3 | COc1ccccc1N1CCN(CCCCNC(=O)c2cc3ccc2CCc2ccc(cc2)CC3)CC1 | 5.4 nM and 9.5 nM | 13 nM and 5.6 nM | 15 nM and 11 nM | –
4 | O=C(NCCCCN1CCN(c2cccc(F)c2F)CC1)c1cc2ccc1CCc1ccc(cc1)CC2 | 18 nM | 35 nM | – | 1.9 nM
5 | COc1ccccc1N1CCN(CCCCNC(=O)c2cc3c4ccc(c3o2)CCc2ccc(cc2)CC4)CC1 | 140 nM | – | 170 nM | 16 nM
